Read-outs that look alike come from different tables or passages of the source.
Key:
[1] = Weight change in diet-induced obesity (DIO) rat model, 4-week administration; type: in vivo, male Sprague Dawley (SD) rats; conditions: DIO rats, 4 weeks
Protocol: To simultaneously evaluate both the weight-loss and hypoglycemic effects of the cyclohexene derivative according to the present invention, experiments were carried out, as follows.
Specifically, male Sprague Dawley (SD) rats (approximately 4 weeks old) in a diet-induced obesity model were fed with a high-fat diet (Lab. Diet Co.) for approximately 10 weeks to induce high-fat diet-induced obesity (DIO). The rats undergoing the high-fat diet were randomly selected, and divided into groups (n=8) for respective administrations. The compounds of Comparative Examples 3 and 4 and Examples 48 and 119 were administered to the divided DIO rats each group for 4 weeks.
The weights of the DIO rats were measured twice a week during a period of administration of 4 weeks to record a change in the weights. At the end of the 4-week period of administration, a hypoglycemic effect was evaluated using an oral glucose tolerance test (OGTT), as follows.
FIG. 1 is a graph determining the changes in weights of rats after compounds of Example 48 and Comparative Examples 3 and 4 according to the present invention are administered to a diet-induced obesity (DIO) rat model for 4 weeks (In FIG. 1, the term “untreated group (Vehicle)” represents an untreated group in a high-fat DIO rat model; and the term “Lean” represents an untreated group in a normal SD rat model rather than a disease model).

[2] = in vivo; conditions: female, Ihara's cataract rats (ICR), rat, po
Protocol: To evaluate acute toxicity of the cyclohexene derivative according to the present invention, experiments were carried out, as follows.
Five 7-week-old female Ihara's cataract rats (ICRs) were supplied by Nara Biotech Co. Ltd., housed in a breeding farm, and acclimated to new environments while being fed with general solid feeds and water. When the rats were 8 weeks old, experiments were carried out. Environmental conditions were maintained constant: a set temperature of 23±3° C., a humidity of 55±15%, an illuminance of 150 to 300 Lux, a ventilation rate of 10 to 20 times/hour, and a lighting time of 12 hours (light-dark cycle: lighting at 8 a.m. and lights-out at 8 p.m.). As the feeds, solid feeds for laboratory animals (5L79 Lab Diet, Purina Mills, Richmond, Ind., USA), which had been sterilized by exposure to radiation, were provided by Orientbio Inc. so that rats were allowed to freely consume the solid feeds. As the water, running water was disinfected using a UV sterilizer and an ultra-filtration system, and then provided o that rats were allowed to freely drink the water in a water bottle. Analyses of contaminants in the water and feeds were carried out according to the ChemOn Inc.'s standard operating procedure (SOP). […]

[3] = target: T1, G protein-coupled receptor 119 (GPR-119) (Mesocricetus auratus, UniProt A0A1U8CD06); experiment: Evaluation of cAMP activity in HIT-T15 cells (HTRF cAMP dynamic kit); type: cell-based, hamster; conditions: cAMP activation
T1 construct: hamster-derived β-cells containing G protein-coupled receptor 119 (GPR-119), HIT-T15 cells; host or cells: HIT-T15 (hamster pancreatic β-cells)
T1 sequence (A0A1U8CD06 1-334): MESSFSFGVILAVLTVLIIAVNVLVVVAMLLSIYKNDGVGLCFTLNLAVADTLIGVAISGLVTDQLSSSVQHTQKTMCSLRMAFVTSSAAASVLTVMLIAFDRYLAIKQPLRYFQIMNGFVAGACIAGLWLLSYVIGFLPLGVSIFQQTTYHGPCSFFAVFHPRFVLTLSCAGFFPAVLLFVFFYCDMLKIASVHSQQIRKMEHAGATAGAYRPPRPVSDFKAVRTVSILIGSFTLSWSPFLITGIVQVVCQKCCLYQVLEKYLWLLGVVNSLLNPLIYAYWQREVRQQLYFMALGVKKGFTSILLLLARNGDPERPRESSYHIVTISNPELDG
Procedure, shortened: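 HIT-T15 cells, 60,000/well, treated next day with compound at six concentrations ([…]) for 1 h at 37° C. Lysate cAMP quantified by HTRF competitive immunoassay (D2-cAMP, cryptate anti-cAMP); activity taken as change in FRET signal relative to DMSO.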

[4] = test system: NCI-H716 cells; experiment: Promotion of glucagon-like peptide-1 (GLP-1) secretion (ELISA); type: cell-based, human; conditions: NCI-H716 cells, 1, 10 and 30 μM-treated groups
Protocol: To evaluate an effect of the cyclohexene derivative according to the present invention on promotion of glucagon-like peptide-1 (GLP-1) secretion, experiments were carried out, as follows.
NCI-H716 cells that were human enterocytes were plated on 12 wells at 1×10^6 cells per well. After 48 hours, the cells were starved in serum-free media for 2 hours, and treated with a varying concentration of siptagliptin that was a dipeptidyl peptidase-IV (DPP-IV) inhibitor, and the compounds of Comparative Example 1 (1, 10, 30 μM), Comparative Example 5 (10 μM), Example 48 (1, 10, 30 μM), and Example 291 (1, 10, 30 μM). After an hour, supernatants are recovered to determine an amount of the secreted GLP-1 peptide. The GLP-1 measurement was performed using an enzyme-linked immunosorbent assay (ELISA; Millipore, EGLP-35K), and the amount of the secreted GLP-1 peptide was indicated by the unit “pM”.
FIG. 3 is graph plotted for amounts of secreted GLP-1 when NCI-H716 cells that are human enterocytes are treated with the compounds of Comparative Examples 1 and 5 and Example 48 according to the present invention.

[5] = test system: blood glucose level; experiment: Oral glucose tolerance test (OGTT) in high-fat diet model; type: in vivo; conditions: Mus musculus, 2 h; hypoglycemic level; 20 mg/kg oral, glucose 2 g/kg oral after 30 minutes; read-out: % AUC
Protocol: To evaluate in vivo effective effects of the cyclohexene derivatives according to the present invention, experiments were carried out, as follows.
Specifically, male C57BL/6J (C57 black 6) […] (8 to 10 weeks old) in a high-fat diet model were acclimated for at least 7 days, and only healthy rat populations were selected and subjected to an oral glucose tolerance test (OGTT). The rats were fasted for 12 to 15 hours, and then randomly divided into groups with five rats per group. Thereafter, each of the compounds of Examples 1, 14, 48, 69, 80, 118, 139, 147, 148, 169, 190, 199, 200, 204, 227, and Comparative Examples 1 and 2 according to the present invention was administered to the rats at a dose of 20 mg/kg. In this case, a vehicle (0.5%, carboxymethyl cellulose (CMC)) was administered as an untreated group, and the dose of the compound administered together with the vehicle was orally administered at 10 ml/kg. After 30 minutes of administration, glucose (2 g/kg) was orally administered at a dose of 10 ml/kg. A blood glucose level was measured using an Accu-Chek Active Strip (Rosche Diagnostic Co.). In this case, the glucose level in blood collected via caudal venipuncture was measured at time points of −30, 0, 20, 40, 60, and 120 minutes after glucose administration.
In Table 3, the unit “% AUC (area under the curve)” represents a hypoglycemic level.

[6] = 1 h at 37° C., six concentrations, read-out: EC50

For `CN(C)C(=N)NC(=N)N` [Comparative Example 3, Metformin], the weight-loss effect ([1]; oral, 300 mg/kg) was “the weight rather increased after 2 weeks of the oral administration”.

For `CC(C)CC(N(C)C)C1(c2ccc(Cl)cc2)CCC1` (centres unmarked) [Comparative Example 4, Sibutramine], the weight-loss effect ([1]; oral, 5 mg/kg) was “the weight rather increased after 2 weeks of the oral administration”.

In the case of `CC(C)c1noc(N2CCC(COc3ccc(C4=CCC(C(=O)N5CC[C@@H](O)C5)CC4)cc3)CC2)n1` (stereo partly drawn) [Example 48, ((R)-3-hydroxypyrrolidin-1-yl)(4-(4-((1-(3-isopropyl-1,2,4-oxadiazol-5-yl)piperidin-4-yl)methoxy)phenyl)cyclohex-3-enyl)methanone], the LD50 [2] is reported as no less than 2000 mg/kg, the EC50 [3, 6] is reported as 35 nM and the EC50 ([3]; read-out: EC50 value) is reported as no more than 50 nM. For the same compound, the “GLP-1 secretion compared with Comparative Example 1” value [4] was “induced GLP-1 secretion to a higher level than that of Comparative Example 1”, the inhibition in vivo at 20 mg/kg [5] was 21.2% and the weight-loss effect ([1]; oral, 10, 20, and 50 mg/kg) was “persistent weight loss was observed for 4 weeks”.

Work on `CCc1cnc(N2CCC(COc3ccc(C4=CCC(C(=O)N5CCC[C@H]5CO)CC4)cc3)CC2)nc1` (stereo partly drawn) [Example 119, (4-(4-((1-(5-ethylpyrimidin-2-yl)piperidin-4-yl)methoxy)phenyl)cyclohex-3-enyl)((S)-2-(hydroxymethyl)pyrrolidin-1-yl)methanone] yielded an LD50 [2] of no less than 2000 mg/kg, an EC50 [3, 6] of 6.8 nM and an EC50 ([3]; read-out: EC50 value) of no more than 50 nM.
